Measurements from patent publication US11208400B2, “Substituted 6-(1H-pyrazol-1-yl)pyrimidin-4-amine derivatives and uses thereof” (Bayer Aktiengesellschaft, priority 2016, dated 2021).

biological target: T1, human Npt2a (Homo sapiens, UniProt Q06495); assay: Npt2a activity cell based assay, membrane potential dye, CHO T-REx hNpt2a cells; details: doxycycline-induced, depolarization by sodium phosphate influx, average or median values if tested more than once
T1 construct: expressed in transfected cells
T1 sequence (Q06495 1-639): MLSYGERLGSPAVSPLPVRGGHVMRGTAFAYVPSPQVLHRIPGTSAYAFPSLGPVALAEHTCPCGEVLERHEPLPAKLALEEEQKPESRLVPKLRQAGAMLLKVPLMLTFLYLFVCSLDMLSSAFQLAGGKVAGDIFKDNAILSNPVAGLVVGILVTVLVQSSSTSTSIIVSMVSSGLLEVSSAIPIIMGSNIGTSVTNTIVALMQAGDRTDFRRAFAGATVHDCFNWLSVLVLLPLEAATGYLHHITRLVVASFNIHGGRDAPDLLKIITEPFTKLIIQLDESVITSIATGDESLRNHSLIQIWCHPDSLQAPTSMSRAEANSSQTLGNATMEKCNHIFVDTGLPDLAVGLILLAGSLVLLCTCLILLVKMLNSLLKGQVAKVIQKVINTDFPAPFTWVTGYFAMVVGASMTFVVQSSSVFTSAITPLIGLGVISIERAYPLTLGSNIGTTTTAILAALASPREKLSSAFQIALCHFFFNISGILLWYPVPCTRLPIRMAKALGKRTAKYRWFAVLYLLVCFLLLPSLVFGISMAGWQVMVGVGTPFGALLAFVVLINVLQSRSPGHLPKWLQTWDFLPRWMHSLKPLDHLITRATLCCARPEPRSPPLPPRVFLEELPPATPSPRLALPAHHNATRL
In short: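 Doxycycline-induced (0.5 μg/mL, 24 h) CHO T-REx cells were loaded with membrane potential dye in sodium-free NHE buffer (pH 7.4) and exposed to compound (50 μM–1 nM, 5 min, room temperature).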

| SMILES | IC50 [nM] |
| --- | --- |
| CCOC(=O)c1c(C)nn(-c2cc(Nc3nn(CC4CC4)c(-c4ccc(F)cc4)c3C)ncn2)c1C [Example 151, ethyl 1-(6-{[1-(cyclopropylmethyl)-5-(4-fluorophenyl)-4-methyl-1H-pyrazol-3-yl]amino}pyrimidin-4-yl)-3,5-dimethyl-1H-pyrazole-4-carboxylate] | 390 |
| CCc1c(-c2ccc(C#N)cc2)nn(CC2CC2)c1Nc1cc(-n2nc(C)c(C(C)=O)c2C)ncn1 [Example 202, 4-[5-{[6-(4-acetyl-3,5-dimethyl-1H-pyrazol-1-yl)pyrimidin-4-yl]amino}-1-(cyclopropylmethyl)-4-ethyl-1H-pyrazol-3-yl]benzonitrile] | 13 |
| CNc1ccc(-c2nn(CC3CC3)c(Nc3cc(-n4nc(C)c(C(F)(F)F)c4C)ncn3)c2C)cc1 [Example 488, N-{1-(cyclopropylmethyl)-4-methyl-3-[4-(methylamino)phenyl]-1H-pyrazol-5-yl}-6-[3,5-dimethyl-4-(trifluoromethyl)-1H-pyrazol-1-yl]pyrimidin-4-amine] | 65 |
| Cc1cc(C)n(-c2cc(Nc3c(C)c(-c4ccc(F)cc4)nn3CC(O)C3CC3)ncn2)n1 (single isomer, unassigned) [Example 370, 1-cyclopropyl-2-[5-{[6-(3,5-dimethyl-1H-pyrazol-1-yl)pyrimidin-4-yl]amino}-3-(4-fluorophenyl)-4-methyl-1H-pyrazol-1-yl]ethanol] | 2400 |
| Cc1nn(-c2cc(Nc3nn(CC4CC4)c(-c4ccc(F)cc4)c3Cl)ncn2)c(C)c1Cl [Example 183, N-[4-chloro-1-(cyclopropylmethyl)-5-(4-fluorophenyl)-1H-pyrazol-3-yl]-6-(4-chloro-3,5-dimethyl-1H-pyrazol-1-yl)pyrimidin-4-amine] | 930 |
| Cc1cc(C)n(-c2cc(Nc3[nH]nc(-c4ccc(F)cc4)c3CC(F)(F)F)ncn2)n1 [Example 36, 6-(3,5-dimethyl-1H-pyrazol-1-yl)-N-[3-(4-fluorophenyl)-4-(2,2,2-trifluoroethyl)-1H-pyrazol-5-yl]pyrimidin-4-amine] | 1700 |
| COc1c(C)nn(-c2cc(Nc3c(C)c(-c4ccc(F)cc4)nn3CC3CC3)ncn2)c1C [Example 385, N-[1-(cyclopropylmethyl)-3-(4-fluorophenyl)-4-methyl-1H-pyrazol-5-yl]-6-(4-methoxy-3,5-dimethyl-1H-pyrazol-1-yl)pyrimidin-4-amine] | 4 |
| Cc1nn(-c2cc(Nc3c(C)c(-c4ccc(C#N)cc4)nn3CC3CC3)ncn2)c(C)c1C(C)O (racemic) [Example 341, (±)-4-{1-(cyclopropylmethyl)-5-[(6-{4-[1-hydroxyethyl]-3,5-dimethyl-1H-pyrazol-1-yl}pyrimidin-4-yl)amino]-4-methyl-1H-pyrazol-3-yl}benzonitrile] | 17 |
| Cc1nn(-c2cc(Nc3nn(C)c(-c4ccc(C#N)cc4)c3C)ncn2)c(C(F)F)c1Cl [Example 235, 4-[3-({6-[4-chloro-5-(difluoromethyl)-3-methyl-1H-pyrazol-1-yl]pyrimidin-4-yl}amino)-1,4-dimethyl-1H-pyrazol-5-yl]benzonitrile] | 3 |
| COCCn1nc(-c2ccc(F)cn2)c(C)c1Nc1cc(-n2nc(C)cc2C)ncn1 [Example 542, 6-(3,5-dimethyl-1H-pyrazol-1-yl)-N-[3-(5-fluoropyridin-2-yl)-1-(2-methoxyethyl)-4-methyl-1H-pyrazol-5-yl]pyrimidin-4-amine] | 28 |
| CCc1c(-c2ccc(C#N)cc2)nn(C)c1Nc1cc(-n2nc(C)cc2C(F)F)ncn1 [Example 216, 4-[5-({6-[5-(difluoromethyl)-3-methyl-1H-pyrazol-1-yl]pyrimidin-4-yl}amino)-4-ethyl-1-methyl-1H-pyrazol-3-yl]benzonitrile] | 12 |
| CCOC(=O)c1c(C)nn(-c2cc(Nc3c(C)c(-c4ccc(C)nc4)nn3CC3CC3)ncn2)c1C [Example 418, ethyl 1-(6-{[1-(cyclopropylmethyl)-4-methyl-3-(6-methylpyridin-3-yl)-1H-pyrazol-5-yl]amino}pyrimidin-4-yl)-3,5-dimethyl-1H-pyrazole-4-carboxylate] | 65 |
| CCOC(=O)c1c(C)nn(-c2cc(Nc3c(C)c(-c4ccc(C(F)(F)F)cc4)nn3C)ncn2)c1C [Example 362, ethyl 1-[6-({1,4-dimethyl-3-[4-(trifluoromethyl)phenyl]-1H-pyrazol-5-yl}amino)pyrimidin-4-yl]-3,5-dimethyl-1H-pyrazole-4-carboxylate] | 220 |
| CCc1c(-c2ccc(F)cc2)nn(CC2CC2)c1Nc1cc(-n2nc(C)c(Cl)c2C)ncn1 [Example 115, 6-(4-chloro-3,5-dimethyl-1H-pyrazol-1-yl)-N-[1-(cyclopropylmethyl)-4-ethyl-3-(4-fluorophenyl)-1H-pyrazol-5-yl]pyrimidin-4-amine] | < 1.6 |
| Cc1nn(-c2cc(Nc3nn(CC4CC4)c(-c4ccc(F)cc4)c3Cl)ncn2)c(C)c1C(C)(C)O [Example 160, 2-[1-(6-{[4-chloro-1-(cyclopropylmethyl)-5-(4-fluorophenyl)-1H-pyrazol-3-yl]amino}pyrimidin-4-yl)-3,5-dimethyl-1H-pyrazol-4-yl]propan-2-ol] | 1110 |
| CCc1c(Nc2cc(-n3nc(C)c(Cl)c3C)ncn2)nn(CC(F)F)c1-c1ccc(F)cc1 [Example 174, 6-(4-chloro-3,5-dimethyl-1H-pyrazol-1-yl)-N-[1-(2,2-difluoroethyl)-4-ethyl-5-(4-fluorophenyl)-1H-pyrazol-3-yl]pyrimidin-4-amine] | 33 |
| Cc1nn(-c2cc(Nc3nn(C)c(-c4ccc(F)cc4F)c3Cl)ncn2)c2ccccc12 [Example 57, N-[4-chloro-5-(2,4-difluorophenyl)-1-methyl-1H-pyrazol-3-yl]-6-(3-methyl-1H-indazol-1-yl)pyrimidin-4-amine] | 117 |
| COCCn1nc(-c2ccc(F)cc2)c(C)c1Nc1cc(-n2nc(C)c(C(F)(F)F)c2C)ncn1 [Example 524, 6-[3,5-dimethyl-4-(trifluoromethyl)-1H-pyrazol-1-yl]-N-[3-(4-fluorophenyl)-1-(2-methoxyethyl)-4-methyl-1H-pyrazol-5-yl]pyrimidin-4-amine] | 8 |
| Cc1cc(C)n(-c2cc(Nc3nn(C)c(-c4cccc(C#N)c4)c3C)ncn2)n1 [Example 189, 3-(3-{[6-(3,5-dimethyl-1H-pyrazol-1-yl)pyrimidin-4-yl]amino}-1,4-dimethyl-1H-pyrazol-5-yl)benzonitrile] | 74 |
| CCOC(=O)c1c(Cl)c(C)nn1-c1cc(Nc2nn(C)c(-c3ccc(F)cc3)c2CC)ncn1 [Example 178, ethyl 4-chloro-1-(6-{[4-ethyl-5-(4-fluorophenyl)-1-methyl-1H-pyrazol-3-yl]amino}pyrimidin-4-yl)-3-methyl-1H-pyrazole-5-carboxylate] | 26 |
| Cc1cc(C)n(-c2cc(Nc3nn(C)c(-c4ccccc4)c3C)ncn2)n1 [Example 62, N-(1,4-dimethyl-5-phenyl-1H-pyrazol-3-yl)-6-(3,5-dimethyl-1H-pyrazol-1-yl)pyrimidin-4-amine] | 135 |
| Cc1nn(-c2cc(Nc3nn(C)c(-c4ccc(F)cc4F)c3Cl)ncn2)c(C)c1Cl [Example 56, N-[4-chloro-5-(2,4-difluorophenyl)-1-methyl-1H-pyrazol-3-yl]-6-(4-chloro-3,5-dimethyl-1H-pyrazol-1-yl)pyrimidin-4-amine] | 20.5 |
